From ChEMBL document CHEMBL1201862, “PubChem BioAssay data set” (2004)
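The compound was tested at five concentrations on cells cultured in 96-well plates, with a 48-hour exposure period. GI50: concentration for 50% inhibition of growth.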 The source made the active and inactive calls. No stated cut-off is given here; in the data, active = GI50 up to about 1.1 µM and inactive = higher.

Experiments:
Experiment in all cases: NCI-60 cell line screen, 48 h
[1] = system: DU-145
[2] = system: A549
[3] = system: K562
[4] = system: SNB-75
[5] = system: 786-0
[6] = system: T47D
[7] = system: SNB-19
[8] = system: OVCAR-4
[9] = system: NCI/ADR-RES
[10] = system: UO-31
[11] = system: HCT-116
[12] = system: PC-3
[13] = system: SN12C
[14] = system: RXF 393
[15] = system: CAKI-1
[16] = system: HOP-92
[17] = system: NCI-H23
[18] = system: Hs-578T
[19] = system: EKVX

Row | SMILES | GI50 [1] | GI50 [2] | GI50 [3] | GI50 [4] | GI50 [5] | GI50 [6] | GI50 [7] | GI50 [8] | GI50 [9] | GI50 [10] | GI50 [11] | GI50 [12] | GI50 [13] | GI50 [14] | GI50 [15] | GI50 [16] | GI50 [17] | GI50 [18] | GI50 [19]
1 | COc1cc2c(cc1O)[C@]1(Cc3ccc4c(c3C1=O)OCO4)N(C)CC2 | > 100 µM (inactive) | > 100 µM (inactive) | > 100 µM (inactive) | 73.5 µM (inactive) | > 100 µM (inactive) | > 100 µM (inactive) | > 100 µM (inactive) | > 100 µM (inactive) | > 100 µM (inactive) | > 100 µM (inactive) | > 100 µM (inactive) | > 100 µM (inactive) | > 100 µM (inactive) | > 100 µM (inactive) | > 100 µM (inactive) | > 100 µM (inactive) | > 100 µM (inactive) | > 100 µM (inactive) | > 100 µM (inactive)
2 | O=C(O)CCC(N/N=N/c1ccc(-c2nc3ccccc3[nH]2)cc1)C(=O)O (stereo unspecified) | > 100 µM (inactive) | 78.7 µM (inactive) | 30.1 µM (inactive) | 59.2 µM (inactive) | 52.1 µM (inactive) | 30.7 µM (inactive) | > 100 µM (inactive) | 66.5 µM (inactive) | 27.8 µM (inactive) | 13.6 µM (inactive) | 70.8 µM (inactive) | 81.8 µM (inactive) | 60.4 µM (inactive) | 40.9 µM (inactive) | 61.4 µM (inactive) | 36.1 µM (inactive) | 71.3 µM (inactive) | 44.4 µM (inactive) | > 100 µM (inactive)
3 | COc1ccccc1C#C/C=C\C#Cc1ccccc1C#N | 20 µM (inactive) | 6.89 µM (inactive) | 3.68 µM (inactive) | 28.7 µM (inactive) | 18.5 µM (inactive) | 5.86 µM (inactive) | 37.8 µM (inactive) | 96.8 µM (inactive) | 10.4 µM (inactive) | 10.9 µM (inactive) | 7.35 µM (inactive) | 13.2 µM (inactive) | 26 µM (inactive) | 7.98 µM (inactive) | 3.72 µM (inactive) | 31.7 µM (inactive) | 5.61 µM (inactive) | 25.9 µM (inactive) | 5.94 µM (inactive)
4 | S=C1SCN(C2CCCCCCCCCCC2)CN1C1CCCCCCCCCCC1 | > 100 µM (inactive) | > 100 µM (inactive) | > 100 µM (inactive) | > 100 µM (inactive) | > 100 µM (inactive) | > 100 µM (inactive) | > 100 µM (inactive) | 86.7 µM (inactive) | > 100 µM (inactive) | > 100 µM (inactive) | > 100 µM (inactive) | > 100 µM (inactive) | > 100 µM (inactive) | > 100 µM (inactive) | > 100 µM (inactive) | > 100 µM (inactive) | > 100 µM (inactive) | > 100 µM (inactive) | > 100 µM (inactive)
5 | CC(=O)N(C(=O)CC(=O)N1N=C(c2ccccc2)C(/N=N/c2ccccc2[N+](=O)[O-])C1=O)c1ccc(Cl)cc1 (stereo unspecified) | > 10 µM (inactive) | > 10 µM (inactive) | > 10 µM (inactive) | 9.55 µM (inactive) | > 10 µM (inactive) | > 10 µM (inactive) | > 10 µM (inactive) | > 10 µM (inactive) | > 10 µM (inactive) | > 10 µM (inactive) | > 10 µM (inactive) | > 10 µM (inactive) | > 10 µM (inactive) | > 10 µM (inactive) | > 10 µM (inactive) | > 10 µM (inactive) | > 10 µM (inactive) | > 10 µM (inactive) | > 10 µM (inactive)
6 | O=C(CSc1nc2ccc(I)cc2c(=O)n1Cc1ccccc1)Nc1ccc(Br)cc1 | 70.5 µM (inactive) | > 100 µM (inactive) | 24.7 µM (inactive) | 13.8 µM (inactive) | 58.6 µM (inactive) | 97.9 µM (inactive) | 68.1 µM (inactive) | 34.7 µM (inactive) | 51.9 µM (inactive) | 0.114 µM (active) | 88.5 µM (inactive) | 17.5 µM (inactive) | 37.2 µM (inactive) | 43.9 µM (inactive) | 1.35 µM (inactive) | 60.3 µM (inactive) | > 100 µM (inactive) | 17.8 µM (inactive) | 12.9 µM (inactive)
7 | COc1cc(N(CCC#N)CCC#N)ccc1C(=N/NC(=O)c1cc(Br)ccc1O)/N=N/c1ccccc1 | 27.9 µM (inactive) | 25.4 µM (inactive) | 19.4 µM (inactive) | 27.7 µM (inactive) | 29.1 µM (inactive) | 24 µM (inactive) | 32.1 µM (inactive) | 19.6 µM (inactive) | 32.5 µM (inactive) | 21.6 µM (inactive) | 21.5 µM (inactive) | 25.5 µM (inactive) | 31.8 µM (inactive) | 26.4 µM (inactive) | 27 µM (inactive) | 24.3 µM (inactive) | 21.4 µM (inactive) | 61.2 µM (inactive) | 21.1 µM (inactive)
8 | COC(=O)C1=C(OC(=O)/C(=C/c2ccccc2)c2ccc([N+](=O)[O-])cc2)C(C(=O)OC)[C@@]2(O)[C@@H](C(=O)OC)[C@H](C)C[C@@H]1[C@@H]2C(=O)OC (stereo partly specified) | > 100 µM (inactive) | 76.2 µM (inactive) | > 100 µM (inactive) | 72.9 µM (inactive) | > 100 µM (inactive) | > 100 µM (inactive) | > 100 µM (inactive) | > 100 µM (inactive) | > 100 µM (inactive) | > 100 µM (inactive) | > 100 µM (inactive) | > 100 µM (inactive) | > 100 µM (inactive) | 53 µM (inactive) | > 100 µM (inactive) | > 100 µM (inactive) | > 100 µM (inactive) | > 100 µM (inactive) | > 100 µM (inactive)
9 | C/N=c1\sc2c(n1C)C(=O)c1ccccc1C2=O | 1.66 µM (inactive) | 1.93 µM (inactive) | 3.37 µM (inactive) | 2.06 µM (inactive) | 6.79 µM (inactive) | 3.78 µM (inactive) | 3.4 µM (inactive) | 5.43 µM (inactive) | 3.95 µM (inactive) | 7.45 µM (inactive) | 2.85 µM (inactive) | 3.96 µM (inactive) | 1.64 µM (inactive) | 3.08 µM (inactive) | 8.41 µM (inactive) | 10.3 µM (inactive) | 0.566 µM (active) | 2.39 µM (inactive) | 10.7 µM (inactive)
10 | CCOC(CN=C=S)OCC | > 10 µM (inactive) | > 10 µM (inactive) | 7.01 µM (inactive) | > 10 µM (inactive) | > 10 µM (inactive) | > 10 µM (inactive) | > 10 µM (inactive) | > 10 µM (inactive) | > 10 µM (inactive) | > 10 µM (inactive) | 7.4 µM (inactive) | > 10 µM (inactive) | > 10 µM (inactive) | > 10 µM (inactive) | > 10 µM (inactive) | 7.67 µM (inactive) | > 10 µM (inactive) | > 10 µM (inactive) | > 10 µM (inactive)
11 | CCC(C)C(C(=O)N/N=C1/SCC(=O)N1C)C(=O)N/N=C1/SCC(=O)N1C (stereo unspecified) | > 100 µM (inactive) | > 100 µM (inactive) | > 100 µM (inactive) | > 100 µM (inactive) | > 100 µM (inactive) | > 100 µM (inactive) | > 100 µM (inactive) | > 100 µM (inactive) | > 100 µM (inactive) | > 100 µM (inactive) | > 100 µM (inactive) | > 100 µM (inactive) | > 100 µM (inactive) | > 100 µM (inactive) | > 100 µM (inactive) | > 100 µM (inactive) | > 100 µM (inactive) | > 100 µM (inactive) | > 100 µM (inactive)
12 | CCN1C(=O)/C(=C\Nc2ccccc2)S/C1=N/Nc1ncc(CC(=O)Nc2ccccc2C)s1 | > 100 µM (inactive) | 58.2 µM (inactive) | 43.6 µM (inactive) | 28.4 µM (inactive) | > 100 µM (inactive) | 45.3 µM (inactive) | > 100 µM (inactive) | > 100 µM (inactive) | 45 µM (inactive) | 38.7 µM (inactive) | > 100 µM (inactive) | 44.9 µM (inactive) | > 100 µM (inactive) | > 100 µM (inactive) | > 100 µM (inactive) | 67.6 µM (inactive) | > 100 µM (inactive) | 45.6 µM (inactive) | > 100 µM (inactive)
13 | COC(=O)CCC(C)[C@H]1CCC2C3C(C[C@H](OC(C)=O)[C@@]21C)[C@@]1(C)CCC2(C[C@H]1C[C@H]3OC(C)=O)OOC1(CCC(C(C)(C)C)CC1)OO2 (stereo partly specified) | > 100 µM (inactive) | 7.24 µM (inactive) | 8.69 µM (inactive) | 37.9 µM (inactive) | 13.5 µM (inactive) | 5.71 µM (inactive) | > 100 µM (inactive) | 15.6 µM (inactive) | > 100 µM (inactive) | 12.4 µM (inactive) | 3.97 µM (inactive) | 6.7 µM (inactive) | 58.2 µM (inactive) | > 100 µM (inactive) | 12.8 µM (inactive) | 6.59 µM (inactive) | 9.42 µM (inactive) | 5.43 µM (inactive) | 4.12 µM (inactive)
14 | Oc1cc(Cc2ccccc2)c(Cc2ccccc2)cc1O | > 10 µM (inactive) | > 10 µM (inactive) | > 10 µM (inactive) | 4.62 µM (inactive) | > 10 µM (inactive) | > 10 µM (inactive) | > 10 µM (inactive) | > 10 µM (inactive) | > 10 µM (inactive) | > 10 µM (inactive) | > 10 µM (inactive) | > 10 µM (inactive) | > 10 µM (inactive) | > 10 µM (inactive) | > 10 µM (inactive) | > 10 µM (inactive) | > 10 µM (inactive) | > 10 µM (inactive) | > 10 µM (inactive)
